6 molecules from article PMC8789064, “High-Throughput-Methyl-Reading (HTMR) assay: a solution based on nucleotide methyl-binding proteins enables large-scale screening for DNA/RNA methyltransferases and demethylases” (Nucleic Acids Research, 2021) can be followed below.

Like-named read-outs stand apart in the source and are kept apart here.

What is called Ki is a measure of affinity in units of concentration, obtained from inhibition or displacement. The low end stands for tighter binding, the high end for weaker binding. As usually defined, the IC50 is the point on the concentration scale where inhibition reaches its midpoint.

The target of one data set is T1, tri-MBD1 (Homo sapiens, UniProt Q9UIS9).
T1 construct: Genes encoding tri-MBD1 (tandem three MBD1 1–105 ORF); made in house; host or cells: E. coli BL21(DE3) codon plus RIPL
T1 sequence (Q9UIS9 with tags, fused parts or gaps): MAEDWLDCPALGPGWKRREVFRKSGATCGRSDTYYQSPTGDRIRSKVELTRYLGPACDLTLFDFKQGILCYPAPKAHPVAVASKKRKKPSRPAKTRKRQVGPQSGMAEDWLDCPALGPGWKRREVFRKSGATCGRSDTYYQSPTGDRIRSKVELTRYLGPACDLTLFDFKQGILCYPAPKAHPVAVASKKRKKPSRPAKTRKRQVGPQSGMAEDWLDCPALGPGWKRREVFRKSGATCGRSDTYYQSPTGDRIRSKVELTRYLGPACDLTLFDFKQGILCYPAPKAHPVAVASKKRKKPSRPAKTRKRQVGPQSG
The data set is described as follows: Counter screen: binding of methyl-binding protein tri-MBD1 without enzyme. An excerpt:
(§1) False-positive compounds should be abandoned during the high-throughput screening. […] This entails replacing half of the substrate oligonucleotide with product oligonucleotide in the absence of the enzyme and adding the methyl-binding protein into the wells. The FP signal can then be measured according to the above steps.
(§2) Finally, we performed high-throughput screening against DNMT1 and ALKBH5 for an in-house library of 2000 compounds. […] Half of the substrate oligonucleotide was replaced with the product (chemical synthetic) in the assay (the enzyme was removed), in which case the false-positive compounds would still influence the FP signal value while the true hits would not. […] We performed a cofactor-competitive assay to evaluate the biological activity and mechanism of action of hit compounds.

The target of a further data set is T2, METTL3/14 (Homo sapiens, UniProt Q86U44).
T2 construct: The full-length METTL3 and METTL14 plasmids were obtained from Professor Ping Yin; made in house; host or cells: E. coli BL21(DE3) codon plus RIPL
T2 sequence (Q86U44 whole entry): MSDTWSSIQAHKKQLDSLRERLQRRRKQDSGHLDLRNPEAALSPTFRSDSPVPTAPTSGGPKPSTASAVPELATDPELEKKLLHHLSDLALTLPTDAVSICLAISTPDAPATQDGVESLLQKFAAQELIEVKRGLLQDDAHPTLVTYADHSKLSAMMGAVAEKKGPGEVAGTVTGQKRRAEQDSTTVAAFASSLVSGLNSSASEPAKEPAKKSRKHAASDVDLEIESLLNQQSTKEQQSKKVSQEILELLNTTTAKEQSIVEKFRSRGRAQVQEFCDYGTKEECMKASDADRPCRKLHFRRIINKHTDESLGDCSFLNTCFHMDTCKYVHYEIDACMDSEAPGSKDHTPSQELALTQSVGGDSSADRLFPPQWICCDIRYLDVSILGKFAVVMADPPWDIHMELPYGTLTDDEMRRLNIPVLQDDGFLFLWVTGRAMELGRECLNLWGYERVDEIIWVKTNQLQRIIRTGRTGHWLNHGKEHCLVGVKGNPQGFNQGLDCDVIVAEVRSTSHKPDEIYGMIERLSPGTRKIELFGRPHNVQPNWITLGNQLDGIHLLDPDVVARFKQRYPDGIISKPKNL
Put plainly: HTMR (FP-based) METTL3/METTL14 methylation assay. Format: biochemical. To be noted: from IC50 vs SAM concentration line, Cheng-Prusoff. The method, then: (§3) To start the assay, the binding curve of the substrate oligonucleotide and the product oligonucleotide (chemical synthetic) were titrated to determine the proper concentration of methyl-binding proteins. The final NaCl conditions of DNMT1, TET2, METTL3/14 and ALKBH5 were 400, 300, 250 and 250 mM, respectively. The assays could be performed in 10 μl + 10 μl, 20 μl + 20 μl (as in this study), or other formats in a black 384-well plate (Corning #3575). The former is the reaction volume containing enzyme, oligonucleotide, and cofactors, while the latter is the volume of methyl-binding protein. The reaction was initiated by the addition of the enzymes or the substrates and terminated by the addition of methyl-binding proteins. The FP signals were then measured in fluorescence polarization standard mode by EnVision Multilabel Reader (PerkinElmer) after 10–15 min of incubation. The plate can be repeatedly measured. […] All data were analyzed in GraphPad Prism 7.0.
The enzymes, oligonucleotides, and cofactors were diluted in a reaction buffer containing 20 mM HEPES, pH 7.4, 1 mM DTT and 0.4 U/μl RNase inhibitor (BBI Life sciences). […] After 10–15 min of incubation, the plate was read by Envision (PerkinElmer).
(§4) All the curves were plotted in the Graphpad prism 7.0. And the IC50 values were determined by the log(inhibitor) versus response—variable slope (four parameters) model in Graphpad prism 7.0. […]

The next data set addresses T3, DNMT1 (Homo sapiens, UniProt P26358).
T3 construct: The human DNMT1 (351–1600) gene with N terminal 6xHis tag and a TEV cleavage site; 6xHis (N); TEV cleavage site (N); made in house; host or cells: Spodoptera frugiperda Sf9 (baculovirus)
The data set is described as follows: DNMT1 FP binding assay (DNA binding of the enzyme). The method, then:
(§5) The FP binding assay of DNMT1 and METTL3/14 was performed in a buffer containing 20 mM HEPES, pH 7.4, and 1 mM DTT. The FP binding assay of TET2 and ALKBH5 was performed in the reaction buffer that removes the NaCl. At high concentrations of NaCl (over 100 mM), weak FP signals were detected for the enzymes.

A further data set concerns the target T4, DNMT1(351–1600) (Homo sapiens, UniProt P26358).
T4 construct: The human DNMT1 (351–1600) gene with N terminal 6xHis tag and a TEV cleavage site; 6xHis (N); TEV cleavage site (N); made in house; host or cells: Spodoptera frugiperda Sf9 (baculovirus)
Put plainly: HTMR (FP-based) DNMT1 methylation assay. Format: biochemical.

In data set [1] the target is T5, ALKBH5(66–292) (Homo sapiens, UniProt Q6P6C2).
T5 construct: The untagged MBD1 (1–105) and ALKBH5 (66–292) catalytic domain genes were subcloned; made in house; host or cells: E. coli BL21(DE3) codon plus RIPL
T5 sequence (Q6P6C2 66-292): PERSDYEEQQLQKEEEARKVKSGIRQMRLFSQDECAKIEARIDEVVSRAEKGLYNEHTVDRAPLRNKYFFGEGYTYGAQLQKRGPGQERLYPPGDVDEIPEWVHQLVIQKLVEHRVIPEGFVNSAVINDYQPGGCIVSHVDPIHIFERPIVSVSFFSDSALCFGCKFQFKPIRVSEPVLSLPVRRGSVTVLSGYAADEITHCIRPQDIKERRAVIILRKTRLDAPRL
The data set is described as follows: NMR CPMG and STD experiments. Type of data set: binding. To be noted: 200 μM compound, 5 μM ALKBH5. The method, then: Saturation transfer difference (STD) and Carr-Purcell-Meiboom-Gill (CPMG) experiments were performed to investigate the interaction between the compound and the protein, as previously described ([65]). All NMR spectra were acquired on a Bruker Avance III 600 MHz NMR spectrometer equipped with a cryoprobe (Bruker Biospin, Germany). The 5 μM ALKBH5(66–292) protein and 200 μM compound were dissolved into a phosphate buffer containing 20 mM NaH2PO4, 20 mM Na2HPO4, pH 7.4, 100 mM NaCl, 95% D2O, 5% DMSO-d6 and then used in NMR data acquisition. Transverse relaxation-edited spectra were recorded using the water-suppressed CPMG pulse sequence. Sixty-four transients were collected into 48 076 data points with a spectral width of 8.0 kHz and an acquisition time of 3.0 s. STD spectrum was recorded using the pulse sequence of stddiffgp19.3 with water suppression (3–9–19 WATERGATE). The on and off resonance excitation positions were defined at –0.17 and 33 ppm, respectively. The bandwidth for the saturation pulse was set to 42.4 Hz. One hundred and twenty-eight transients were collected into 32,768 data points with a spectral width of 9.6 kHz and an acquisition time of 1.71 s.

For a further data set, the target named is T6, TET2 (Homo sapiens, UniProt Q6N021).
T6 construct: made in house; host or cells: E. coli BL21(DE3) codon plus RIPL
Put plainly: HTMR (FP-based) TET2 demethylation assay. Format: biochemical.

The target of data set [2] is T7, ALKBH5 (Homo sapiens, UniProt Q6P6C2).
T7 construct: The untagged MBD1 (1–105) and ALKBH5 (66–292) catalytic domain genes were subcloned; made in house; host or cells: E. coli BL21(DE3) codon plus RIPL
T7 sequence (Q6P6C2 66-292): as the sequence (Q6P6C2 66-292) above
Put plainly: ALKBH5 FP binding assay (RNA binding of the enzyme). The method, then:
as §5

Another data set has as its target T8, YTHDF1 (Homo sapiens, UniProt Q9BYJ9).
T8 construct: YTHDF1 (361–559), YTHDF2 (380–579) and YTHDC1 (355–492) were chemically synthesized; made in house; host or cells: E. coli BL21(DE3) codon plus RIPL
T8 sequence (Q9BYJ9 361-559): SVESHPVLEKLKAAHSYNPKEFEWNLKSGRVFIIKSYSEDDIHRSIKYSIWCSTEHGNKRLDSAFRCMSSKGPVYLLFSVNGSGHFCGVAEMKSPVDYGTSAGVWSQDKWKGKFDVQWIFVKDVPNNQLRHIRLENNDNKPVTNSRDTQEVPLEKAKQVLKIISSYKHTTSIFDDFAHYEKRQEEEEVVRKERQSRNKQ
Put plainly: Counter screen: binding of methyl-binding protein YTHDF1 without enzyme. To be noted: ALKBH5 assay format, enzyme removed.
Excerpt: as §1, §2
A general note: Counterscreens check selectivity or assay interference.

Data set [3] deals with T5, ALKBH5(66–292). Put plainly: Thermal shift assay. Type of data set: binding. To be noted: 5 μM ALKBH5, 100 μM compound (molar ratio 1:20); read-out: Tm shift (ΔTm) of ALKBH5. The method, then: The thermal shift assay was performed with a QuantStudio 6 Flex real-time PCR machine (Applied Biosystems) with a buffer containing 20 mM HEPES, pH 7.4 and 100 mM NaCl. The final system was 20 μl, which contained 5 μM ALKBH5(66–292) protein, 1:1000 dilution of SYPRO Orange dye (purchased from Invitrogen, 5000× stock in DMSO), and DMSO or 100 μM compounds (final DMSO concentration was 0.1%). The samples were heated from 25 to 95°C (2.5°C/min). All samples were performed in triplicate and data were analyzed by Protein Thermal Shift Software version 1.3 (Applied Biosystems).

Data set [4] deals with T7, ALKBH5. The data set is described as follows: HTMR (FP-based) ALKBH5 demethylation assay. Type of data set: biochemical. To be noted: different concentrations of 2-OG. The method, then: as §3, with “The reaction was initiated by the addition of the enzymes or the substrates and terminated by the addition of methyl-binding proteins.” left out
The reaction buffer containing 20 mM HEPES, pH 7.4, 250 mM NaCl, 200 μM 2-OG, 300 μM ascorbic acid, and 50 μM […]. […] The plate can then be read immediately or after 10–15 min of incubation due to an equal concentration of NaCl. After this, the plate can be read by EnVision (PerkinElmer).
as §4

In data set [5] the target is T9, tri-MBD1 (GST-MBD1-MBD1-MBD1) (UniProt Q9UIS9 1-105).
T9 chain: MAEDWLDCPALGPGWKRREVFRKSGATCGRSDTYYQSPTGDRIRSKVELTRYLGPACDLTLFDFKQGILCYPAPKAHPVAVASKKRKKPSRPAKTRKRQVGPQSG
The data set is described as follows: fluorescence polarization; 400 mM NaCl, 20 nM DNMT1 present; FP, 384-well; methyl readers at final NaCl 400 mM (DNMT1 assay), 300 mM (TET2), 250 mM (METTL3/14, ALKBH5), 10-15 min; DNMT1 and METTL3/14 binding in 20 mM HEPES pH 7.4, 1 mM DTT with varied NaCl; TET2 and ALKBH5 in reaction buffer without NaCl; temperature not stated. To be noted: protein: recombinant; tags: N-terminal GST (pGEX-6P-1); label: 5'-FAM top strand; blunt.

The target of another data set is T10, GST-YTHDF1 YTH domain (UniProt Q9BYJ9 361-559).
T10 sequence: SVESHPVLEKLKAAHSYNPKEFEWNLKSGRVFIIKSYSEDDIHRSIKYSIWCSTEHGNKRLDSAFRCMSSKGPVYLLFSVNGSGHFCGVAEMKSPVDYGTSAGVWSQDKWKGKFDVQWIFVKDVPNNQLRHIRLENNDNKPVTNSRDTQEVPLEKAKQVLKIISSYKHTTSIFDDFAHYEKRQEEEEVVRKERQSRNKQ
The data set is described as follows: fluorescence polarization; 250 mM NaCl; over 100-fold selectivity for m6A over unmodified RNA; FP, 384-well; methyl readers at final NaCl 400 mM (DNMT1 assay), 300 mM (TET2), 250 mM (METTL3/14, ALKBH5), 10-15 min; DNMT1 and METTL3/14 binding in 20 mM HEPES pH 7.4, 1 mM DTT with varied NaCl; TET2 and ALKBH5 in reaction buffer without NaCl; temperature not stated. To be noted: protein: recombinant; tags: N-terminal GST; label: 5'-FAM; single strand. (In general: In fluorescence polarisation assays a small probe gives low polarisation when free and higher when bound to something large.)

T4 sequence (P26358 351-1600): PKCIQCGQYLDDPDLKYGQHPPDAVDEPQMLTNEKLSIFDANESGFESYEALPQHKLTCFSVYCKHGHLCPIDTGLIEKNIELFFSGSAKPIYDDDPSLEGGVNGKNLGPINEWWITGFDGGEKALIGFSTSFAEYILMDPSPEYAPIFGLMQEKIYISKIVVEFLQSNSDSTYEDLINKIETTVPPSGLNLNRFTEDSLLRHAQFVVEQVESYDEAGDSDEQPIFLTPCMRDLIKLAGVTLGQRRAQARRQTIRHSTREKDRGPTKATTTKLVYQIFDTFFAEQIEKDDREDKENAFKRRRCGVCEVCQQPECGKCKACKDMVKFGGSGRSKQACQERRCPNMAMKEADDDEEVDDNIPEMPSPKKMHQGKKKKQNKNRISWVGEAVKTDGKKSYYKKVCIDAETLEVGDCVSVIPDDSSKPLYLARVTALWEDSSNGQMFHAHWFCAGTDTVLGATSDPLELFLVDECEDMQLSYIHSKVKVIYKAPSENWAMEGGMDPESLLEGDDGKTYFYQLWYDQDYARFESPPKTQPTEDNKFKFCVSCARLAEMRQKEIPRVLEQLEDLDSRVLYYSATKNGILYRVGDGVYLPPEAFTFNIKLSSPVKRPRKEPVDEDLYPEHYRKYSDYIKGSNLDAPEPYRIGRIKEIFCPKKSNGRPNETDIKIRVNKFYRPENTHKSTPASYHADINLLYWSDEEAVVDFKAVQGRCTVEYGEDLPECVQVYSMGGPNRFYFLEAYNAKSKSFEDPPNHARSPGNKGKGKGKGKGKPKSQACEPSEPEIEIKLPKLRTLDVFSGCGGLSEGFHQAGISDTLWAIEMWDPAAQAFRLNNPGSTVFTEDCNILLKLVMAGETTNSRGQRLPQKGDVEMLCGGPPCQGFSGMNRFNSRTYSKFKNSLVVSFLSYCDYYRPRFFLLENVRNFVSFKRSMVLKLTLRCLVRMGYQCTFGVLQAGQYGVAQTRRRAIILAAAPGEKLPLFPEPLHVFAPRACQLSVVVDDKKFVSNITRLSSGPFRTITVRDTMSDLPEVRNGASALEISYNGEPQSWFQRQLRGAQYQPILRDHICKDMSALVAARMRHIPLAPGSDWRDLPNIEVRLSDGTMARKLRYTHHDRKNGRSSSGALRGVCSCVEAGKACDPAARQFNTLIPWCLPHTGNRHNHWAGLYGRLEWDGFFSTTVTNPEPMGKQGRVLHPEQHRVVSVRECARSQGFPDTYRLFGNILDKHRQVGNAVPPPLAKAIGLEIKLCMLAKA
T3 sequence (P26358 351-1600): as above
Description for DNMT1(351–1600): To start the assay, the binding curve of the substrate oligonucleotide and the product oligonucleotide (chemical synthetic) were titrated to determine the proper concentration of methyl-binding proteins. […] The assays could be performed in 10 μl + 10 μl, 20 μl + 20 μl (as in this study), or other formats in a black 384-well plate (Corning #3575). The former is the reaction volume containing enzyme, oligonucleotide, and cofactors, while the latter is the volume of methyl-binding protein. The reaction was initiated by the addition of the enzymes or the substrates and terminated by the addition of methyl-binding proteins. The FP signals were then measured in fluorescence polarization standard mode by EnVision Multilabel Reader (PerkinElmer) after 10–15 min of incubation. […] All data were analyzed in GraphPad Prism 7.0.
The reaction components (enzyme, oligonucleotide and cofactors) were diluted in a reaction buffer containing 20 mM HEPES, pH 7.4, 1 mM EDTA and 1 mM DTT. […] This was followed by incubation for 10–15 min at RT (room temperature), after which the plate was read by EnVision (PerkinElmer).

For `O=C(O)c1ccc(O)c2ncccc12` [IOX1, reference compound], the “Effect on binding of tri-MBD1” value at tri-MBD1 (high concentration (over 50 μM)) is “can inhibit the binding of tri-MBD1”.
`Nc1ncnc2c1ncn2[C@@H]1O[C@H](CSCC[C@H](N)C(=O)O)[C@@H](O)[C@H]1O` [SAH] came in with an inhibition constant (Ki) at METTL3/14 of 2.06 ± 2.8 µM.
Take `O=c1oc2c(O)c(O)cc3c(=O)oc4c(O)c(O)cc1c4c23` [ellagic acid]: the entries for the “Effect on DNA binding of DNMT1” value at DNMT1 and on DNMT1 (listed as Ellagic acid) were “competed with the binding of DNA” and “disturbed the DNA-DNMT1”, respectively. In addition, at tri-MBD1 (DNMT1 assay format, enzyme removed), the “Interference with the assay (counter screen)” value is reported as “didn’t interference the assay”. For the same molecule, on DNMT1(351–1600) (cofactor-competitive assay, increasing SAM), the “Mechanism with respect to cofactor SAM” value is listed as “SAM-noncompetitive”. For the same molecule, the IC50 at DNMT1(351–1600) (different concentrations of SAM, read-out: IC50 against DNMT1) is roughly 67 µM.
In the case of `O=c1c(O)c(-c2ccc(O)c(O)c2)oc2cc(O)cc(O)c12` [quercetin], the “Direct binding to ALKBH5 catalytic domain (CPMG, STD)” value at ALKBH5(66–292) [1] is “strongly bound”. Moreover, the “Activity during the TET2 demethylation reaction” value at TET2 was “high activity”. In addition, the “Effect on RNA binding of ALKBH5” value is reported as “did not affect the RNA binding of ALKBH5” at ALKBH5 [2] and “didn’t affect the RNA binding” on ALKBH5 [2] (listed as Quercetin). Besides, on YTHDF1, the “Interference with the assay (counter screen)” value is reported as “didn’t interference the assay”. Besides, the ΔTm at 100 µM at ALKBH5(66–292) [3] stood at 2.57 °C. Further, at ALKBH5 [4], the “Change of IC50 in the ALKBH5 reaction with 2-OG concentration” value is listed as “did not significantly change”.

B1: fully-methylated DNA [M/M] (dsDNA)
DNA 1: TACGACCAGGAT
DNA 2: ATCCTGGTCGTA
modifications: 5mC at position 3 of top strand and position 9 of bottom strand
For B1, the binding result in data set [5] is given as “binds”.
For the molecule GAACCGGACUGUCUUA (ssRNA, m6A at position 8) [m6A-modified RNA], the binding result in the data set with GST-YTHDF1 YTH domain is “binds”.
